Experimental data as given in patent publication US11378570B2, “Cytotoxicity test method for medical devices” (Alcon Inc., priority 2017, dated 2022).

Tested on: Mouse lymphoma TK cells
Experiment: TK suspension cell assay, treatment with dilutions of BAK and ZDBC
Type: cell-based
Details: 72±2 hours; for dose dependence of the decrease in cell growth: serial dilutions, 5% or 10% FBS
Method: For each test material, data were collected and the mean and SD were calculated using Excel. The IC50 was calculated using SigmaPlot. Determination of cytotoxicity and test acceptance criteria followed those described in JMHLW and ISO 10993-5: The relative colony-forming rate/relative growth rate of positive control (reference material B) should be equal or less than 10%, and negative control (Wako disk) should be equal or greater than 80%.
Relative cell growth rate (%)=[100×(Test cell concentration at time 72 hours−mean of blank cell concentration at time 0)÷(mean of blank cell concentration at time 72 hours−mean of blank cell concentration at time 0)]. The results are expressed as the mean±standard deviation (SD) from three independent studies and each study has six replicates for each lens.
Phosphate buffer (Cat. #SH30028.02, HyClone, Logan, Utah) was used for dilutions of BAK (1.25, 2.5, 5, 10, 25, and 50 parts per million) (Cat. #B1068, Spectrum Chemical, New Brunswick, N.J.). A total of 900 μL of 2.2×10^4 cells/mL TK cells in assay medium (RPMIFBS10 or RPMIFBS05) were seeded in a 24-well plate and then treated with different dilutions of BAK (100 μL) to achieve final concentrations of 0.125, 0.25, 0.5, 1.0, 2.5, and 5 ppm. Phosphate buffer (100 μL)-treated cells served as a blank control, reference material B (diameter (ϕ): 14 mm) as a positive control, and Wako tissue culture plastic disk served a negative control. After 72±2 hours incubation, 600 μL cells were mixed and transferred into the counter vial. The relative cell growth rate was determined and calculated as described above. The results are expressed as the mean±SD based on three replicates.
DMSO was used to dissolve ZDBC powder (Cat. #Z1031, Spectrum Chemical, New Brunswick, N.J.) to make […], 0.1, 0.2, 0.4, 0.8, and 2 mg/mL dilutions. Next, 995 μL of 2.0×10^4 cells/mL TK cells in assay medium (either RPMIFBS10 or RPMIFBS05) were seeded in a 24-well plate and treated with 5 μL of different ZDBC dilutions to achieve final concentrations of 0.25, 0.5, 1, 2, 4, and 10 μg/mL. DMSO (5 μL)-treated cells served as a blank control, reference material B (diameter (ϕ): 14 mm) as a positive control, and Wako tissue culture plastic disk served a negative control. After 72±2 hours incubation, 600 μL cells were mixed and transferred into the counter vial. The relative cell growth rate was determined and calculated as described above. The results are expressed as the mean±SD based on three replicates.

Row | Substance | IC50 (relative cell growth rate) (5% FBS) [ppm] | IC50 (relative cell growth rate) (10% FBS) [ppm] | cytotoxicity (at 0.25 and 0.125 ppm) | cell growth inhibition as compared to the blank control (at 5, 2.5, 1, and 0.5 ppm) | dose dependence of the decrease in cell growth | IC50 (relative cell growth rate) (5% FBS medium) [µg/mL] | IC50 (relative cell growth rate) (10% FBS medium) [µg/mL]
1 | benzalkonium chloride [BAK] | 0.55 | 0.59 | not cytotoxic | significant cell growth inhibition | dose-dependent decrease in cell growth | – | –
2 | zinc dibutyldithiocarbamate [ZDBC] | – | – | – | – | dose-dependent decrease in cell growth | 2.0 | 4.5
